Values of other authors, collected in US20210121515A1, “COMPOSITION FOR USE IN THE PREVENTION AND/OR TREATMENT OF OSTEOARTICULAR DISEASES” (NEILOS S.R.L., priority 2018, published 2021).

What was measured:
[1] = target: T1, mPGES-1 (Homo sapiens, UniProt O14684); conditions: intact A549 cell assays
T1 construct: with an IC50 of 10 μM in intact A549 cell assays; endogenous in cells; host or cells: A549
T1 sequence (O14684 1-152): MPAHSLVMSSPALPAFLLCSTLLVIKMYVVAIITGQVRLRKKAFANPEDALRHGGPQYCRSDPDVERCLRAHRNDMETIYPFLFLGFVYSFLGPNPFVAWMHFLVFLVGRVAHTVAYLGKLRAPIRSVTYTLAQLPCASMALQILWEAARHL

[2] = tested on: carrageenan edema and pleurisy; conditions: doses of 1 mg/kg; comparable to 5 mg/kg of indomethacin
[3] = tested on: NF-κB, COX-2, superoxide dismutase; conditions: rats

For `C[C@H]1[C@H](C)CC[C@]2(C)CC[C@]3(C)C(=CC[C@@H]4[C@@]5(C)CC[C@@H](O)[C@](C)(C(=O)O)[C@@H]5CC[C@]43C)[C@H]12` [β-boswellic acid], the IC50 [1] is listed as 10 µM and the “activity in acute inflammation models” value [2] is listed as “good activity”.
In the case of `O=C(O)[C@H]1O[C@@H](Oc2cc3oc(-c4ccccc4)cc(=O)c3c(O)c2O)[C@H](O)[C@@H](O)[C@@H]1O` [baicalin], the “levels of COX-2” value [3] is given as “reduce”, the “levels of NF-κB” value [3] is given as “reduce” and the “levels of superoxide dismutase” value [3] is given as “increasing”.
